According to a melting point compilation (Tetko et al.; mined from patent text by program, amines drawn as free bases though some values may be those of a salt):

Row | Structure (SMILES) | melting point
1 | CCOCc1nc2c(N)nc3ccccc3c2n1CC1(OCCS(C)(=O)=O)CCN(C(C)=O)CC1 | 208 to 210 °C
2 | O=C1[C@H]2CCC[C@H]2Nc2ccccc2N1Cc1ccc(OCc2ccccc2)cc1 (relative stereo) | 154 to 155 °C
3 | COc1cc(N)c(Cl)cc1C(=O)NCC1CCN(CCCCCOc2ccc(F)cc2)CC1 | 105 to 107 °C
4 | CC(=O)N1CCN(Cc2cnc(-c3cc4c(Cl)ccc(N(C)S(=O)(=O)c5cccs5)c4[nH]3)s2)CC1 | 224 to 225 °C
5 | O=C(CO)c1cccc(Br)c1 | 100 to 101 °C
6 | CC(=O)c1c(C=O)[nH]c(-c2ccncc2)c1C | 208 to 209 °C
7 | COC=C(Br)c1c(C(F)(F)F)nc(C(F)F)c(C(=O)OC)c1CC1CC1 | 79 to 79.5 °C
8 | Fc1cccc(Cl)c1-c1cc(-c2ccc(Cl)cc2)nc2ncnn12 | 238 to 239 °C
9 | CN=Cc1cccc(C(=O)NC)c1 | 87 °C
10 | Nc1cccc2c1C(=O)c1c(O)cccc1C2=O | 305 to 308 °C
11 | CN(C)Cc1cc(C(=O)c2ccc3ccccc3c2)cc(C(C)(C)C)c1O | 162 to 164 °C
12 | CCCCCCCCCc1ccccc1O | 80 °C
13 | CC1=CC(OC(=O)c2ccccc2)C(O)C(C)(C)CC1=O (configuration not stated) | 91 to 92 °C
14 | CC(=O)NCC(=O)Nc1cc(Cl)cc(Nc2ncnc3[nH]cc(C(=O)c4ccccc4)c23)c1 | > 300 °C
15 | COc1ccc(NC(=O)NCCCl)cc1OC | 117 °C
16 | NC(=O)c1cccc(-c2ccc(Oc3ccc(F)cc3)cc2)n1 | 150 to 152 °C
17 | CSc1c(C)n(C)c2ccccc12 | 50 to 52 °C
18 | CN1CCN(CCOc2ccc3nc(C#N)nc(NC4CCCC4)c3c2)CC1 | 110 to 112 °C
19 | CCCOc1cccc(NC(=O)c2ccccc2C)c1 | 92 to 94 °C
20 | N=C(CCOCC(COCCC(=N)NO)(COCCC(=N)NO)COCCC(=N)NO)NO (configuration not stated) | 60 °C
21 | CCOC(=O)c1snc(C(=O)OC(C)(C)C)c1N | 68 to 69 °C
22 | CCOC(=O)CC(=O)c1ccc(NC(C)=O)cc1 | 93 to 94 °C
23 | CC(=NO)c1ccc(C2=CCCCC2)cc1 | 154 to 156 °C
24 | CC(=O)Nc1nnc(SCC(O)(Cn2cncn2)c2ccc(Cl)cc2Cl)s1 (configuration not stated) | 132 °C
25 | CCC1c2ccc(C#N)n2-c2ccc(F)cc2N1S(=O)(=O)c1ccc(O)cc1 (configuration not stated) | 169 to 171 °C

Row | Structure (SMILES) | melting point
26 | C1=CCc2c3c(c4ccccc4c2=C1)=c1c(c2ccccc2c2ccccc12)=C3 | 276 to 278 °C
27 | CS(=O)c1cccc2c1CC(=O)N2C(N)=O (configuration not stated) | 198 to 200 °C
28 | Cc1cc(C)c2cnc(=O)n(CCN(C)C)c2n1 | 137 to 139 °C
29 | O=c1cnc(-c2ccc(F)c(Br)c2)nn1Cc1ccc(Cl)nc1 | 138 to 140 °C
30 | Oc1nc2ccc3c(Br)cccc3c2nc1O | > 300 °C
31 | COc1cccc(NC(=O)NC2N=C(c3ccccc3F)c3cccc(C)c3N(CC(=O)N3CC4CCC(CC4)C3)C2=O)c1 (configuration not stated) | 241 to 243 °C
32 | CC(=O)c1cccc(NC(=O)NC2N=C(C(C)C)c3ccccc3N(CC(=O)N3CC4CCC(CC4)C3)C2=O)c1 (configuration not stated) | 138 to 140 °C
33 | CC(C)(N=NC(C)(C)C(=O)NC1CCCCC1)C(=O)NC1CCCCC1 | 116 °C
34 | CCOc1cc2c(O)c(C(=O)O)cnc2nc1C | 259 to 261 °C
35 | O=C(NCc1ccccc1)Nc1ccc(CN2C(=O)[C@H]3CCC[C@H]3N(C(=O)CN3C(=O)c4ccccc4C3=O)c3ccccc32)cc1 (relative stereo) | 169 to 171 °C
36 | CS(=O)(=O)c1ccc(N)c([N+](=O)[O-])c1 | 195 to 198 °C
37 | O=C(O)CCCNC(=O)S[C@@H]1CC(=O)N(Cc2ccc(Oc3ccc(F)cc3)nc2)C1 | 131 to 132 °C
38 | CC(=O)Oc1cccc(C2(N(C)C)CCC(=O)CC2)c1 | 51 to 53 °C
39 | Cc1cccc(CN(CCC(=O)O)c2nc(N)nc(Cl)n2)c1 | 168 to 170 °C
40 | CNC(=NCCCSCc1[nH]cnc1C)NC#N | 156 to 158 °C
41 | CCOC(=O)C(=CNC1CC1)C(=O)c1c(F)c(F)c(Br)c(F)c1F | 167 to 168 °C
42 | Cc1ccc(OCC(O)CNC(C)(C)C)c(C2=NNC(=O)CC2)c1 (configuration not stated) | 126 to 128 °C
43 | COC(=O)C[C@H](O)C[C@H](O)CCc1c(-c2ccc(F)cc2)c(-c2ccc(F)cc2)c(C(=O)Nc2ccc(S(N)(=O)=O)cc2)n1C(C)C | 106 to 108 °C
44 | CCCCOC(=O)CS(=O)C(C)c1ccc(-c2ccccc2F)cc1 (configuration not stated) | 72 to 74 °C
45 | O=C(Nc1cc(Cl)ccc1N1CCCCC1)c1ccncc1 | 141 to 143 °C
46 | NS(=O)(=O)c1ccc(C=O)cc1 | 104 to 106 °C
47 | N#Cc1ccc(NCC(F)(F)F)cc1C(F)(F)F | 132 to 134 °C
48 | COc1ccc(C(Cl)=NS(=O)(=O)C=Cc2ccc(Cl)c(Cl)c2)cc1OC | 120 to 125 °C
49 | O=C(O)c1ccc(C=NS(=O)(=O)c2ccc(Cl)cc2)cc1 | > 245 °C

Continued, values first:

Row | melting point | Structure (SMILES)
50 | 77 to 79 °C | COC(=O)c1[nH]ccc1OC(C)C
51 | 190 to 191 °C | O=C(Nc1ccc(Oc2ccnc(N3CCCCC3)n2)c2ccccc12)c1cc(F)cc(N2CCOCC2)c1
52 | 97 to 98 °C | CCCC[C@H](NC(=O)[C@H](CC(C)C)NC(=O)c1ccc(F)cc1F)C(=O)CSCc1ccco1
53 | 178 to 180 °C | CCN(CC)CCCn1ccc2cc(Nc3ncnc4cc(-c5ccccc5)sc34)ccc21
54 | 220 to 222 °C | CCOC(=O)c1cc(=O)c2c(OCCOc3ccc(NC(C)=O)cc3)cccc2o1
55 | 88 to 90 °C | O=C(NCCCCn1ccnc1)c1ccco1
56 | 68 °C | Cc1nc(C)c(CO)c(C)n1
57 | 168 to 169 °C | CC1(c2ccccc2)Cc2cc(OCC(=O)O)c(Cl)c(Cl)c2C1=O (configuration not stated)
58 | 72 to 74 °C | C=C(C)C(=O)OCCNC(=O)OCCOc1ccccc1-c1ccccc1OCCOC(=O)NCCOC(=O)C(=C)C
59 | 74 to 76 °C | CC(C)(C)OC(=O)N[C@@H](CO)C(=O)NCCO
60 | 155 to 156 °C | CCC(NC(=NC#N)Nc1cccnc1)c1ccccc1 (configuration not stated)
61 | 131 to 134 °C | O=C(C=Cc1ccccn1)c1ccc(OCc2ccccc2)cc1
62 | 134 °C | CCCC(=O)Nc1cc(S(=O)c2ccccc2)ccc1N(C(=N)NC(=O)OC)C(=O)OC (configuration not stated)
63 | 91 °C | CCCCCCCCCCCCCc1nnc(C=Cc2ncc([N+](=O)[O-])n2C)s1
64 | 115 °C | CN(Cc1cccc(-c2ccc(CC3SC(=O)NC3=O)cc2)c1)C(=O)c1cccnc1 (configuration not stated)
65 | 133 to 135 °C | Cc1nsc(NC(=O)Cc2ccc3nn(CC(C)C)cc3c2)c1Cl
66 | 230 to 233 °C | Cc1[nH]cnc1CN1CCc2c(c3cccc(F)c3n2C)C1=O
67 | 319 to 320 °C | COC(=O)NC(=O)Nc1nc2c(Cl)cccc2s1
68 | 134 to 135 °C | COC(=O)c1ccc(CN(C(CO)CO)S(=O)(=O)c2ccc(Cl)s2)cc1
69 | 108 to 110 °C | CCCCCCCCCCCCCCCc1cc2cc(C(=O)O)ccc2[nH]1
70 | 180 to 183 °C | Cc1ccccc1-c1c(CC(=O)O)c(=O)oc2ccc(Cl)cc12
71 | 120 to 122 °C | N#CN=C1NCCN1Cc1ccccc1
72 | 173 to 174 °C | Cc1nnc(-c2ccc3occ(-c4ccc(S(C)(=O)=O)c(C)c4)c3c2)o1
73 | 119 to 121 °C | COC(=O)c1cccc(C=C(C)[N+](=O)[O-])c1O
74 | 94 to 95 °C | O=C(Nc1ccccc1)c1csc(Oc2cccc(Cl)c2)n1
75 | 172 to 175 °C | O=C(O)CCCc1cc2cc(Cl)ccc2n1S(=O)(=O)c1ccc2nsnc2c1
76 | 92 to 95 °C | COC(=O)c1cc(Cl)c(N)c2c1OCCCN2

Row | melting point | Structure (SMILES)
77 | 113 to 119 °C | Cc1nc(-c2ccc(C#N)cc2)sc1C(=O)N(CCO)[C@H](C)[C@](O)(Cn1cncn1)c1ccc(F)cc1F
78 | 67 to 70 °C | Cc1c(C)c2c(c(C)c1O)CC[C@](C)(C(=O)N[C@H]1CCOC1O)O2 (some centres not stated)
79 | 144 to 145 °C | COc1ccc(-n2c(C)nc3cnccc32)cc1OC1CCCC1
80 | 208 °C | CC=CC(=O)Nc1n[nH]c2cc(C(F)(F)F)ccc12
81 | 100 °C | O=C(O)CC(CC(=O)O)C(F)(F)F
82 | 228 °C | CC(C)c1ccc(C=CC(=O)c2ccc(O)c(CC(=O)O)c2)cc1
83 | 162 to 164 °C | OCCNc1nc2ccccc2o1
84 | 131 to 133 °C | CCOC(=O)c1cn(-c2nc3ccccc3s2)cn1
85 | 208 to 210 °C | O=C(O)Cc1ccc(-c2ccc(O)cc2)c(F)c1
86 | 168 to 170 °C | CCC(C)c1ccc2ccccc2c1C(=O)O (configuration not stated)
87 | 80 to 81 °C | Cn1nc(-c2cc(F)c([N+](=O)[O-])cc2F)cc1C(F)(F)F
88 | 150 to 152 °C | COC(=O)c1cc(OC)cc(-c2cccc([N+](=O)[O-])c2)n1
89 | 94 to 97 °C | CCOC(=O)c1[nH]cc(-c2ccc(F)cc2)c1C(C)C
90 | 203 to 205 °C | Cc1cc(-c2nc3ccc(F)cc3s2)ccc1N
91 | 104 to 106 °C | COc1cncnc1N1CCN(CCCc2c[nH]c3ccc(-c4c(NC(C)C)c(=O)c4=O)cc23)CC1
92 | 126 to 128 °C | CCOC(=O)/C=C(C)/C(F)=C/C=C(C)/C=C/c1c(Cl)cc(OC)c(C)c1C
93 | 173 °C | Cc1ccc(CNc2ccc3c(CNC(=O)c4ccc(F)cc4)cccc3n2)o1
94 | 147 to 148 °C | N#CCCNC(=O)c1cccc(-c2ccc3c(c2)N(c2ccc(Cl)cc2Cl)CCO3)c1
95 | 259 to 260 °C | CNC(=O)NC(=O)C(CC1CCCC1)c1ccc(S(C)(=O)=O)c(Br)c1 (configuration not stated)
96 | 150 to 152 °C | CC(C)(C)OC(=O)N1CCc2cc(OCc3ccccc3)c(OCc3ccccc3)cc2C1Cc1ccc([N+](=O)[O-])cc1 (configuration not stated)
97 | 193 °C | COCCn1cc(C(=O)NCc2ccc(Cl)cc2)c(=O)c2cc(CO)sc21
98 | 133 °C | Cn1c(=O)oc(=O)c2cc(F)ccc21
99 | 91 to 92 °C | CS(=O)(=O)Nc1cccc(OCC#N)c1
100 | 135 to 137 °C | CCOC(=O)c1ccc(NC(=O)CC(CNS(=O)(=O)c2ccc(C)cc2)c2ccccc2)cc1 (configuration not stated)
101 | 240 to 245 °C | CC(C)(C)C(=O)c1sc(NC(=O)c2ccncc2)nc1-c1ccco1
102 | 91.6 °C | Cc1ccc(-c2ccccc2)cc1CNC(=O)N(C)N
